“And” between values parts separate entries of the source, which are not always exact repeats. Equal entries are not always repeated.
What was measured:
Assay type in all cases: cell-based, Ostrinia nubilalis
[1] = tested on: chimeric Ecdysone receptor: maize C1 transactivation domain, Gal4 DNA binding domain, ligand-binding domain of the Ecdysone receptor (PHP10512); experiment: Stable transactivation assay, GAL4-responsive luciferase reporter PHP1654, leaf punches of T0 maize plants, PHP10512; conditions: 10 μM RH5992 in H2O, 16 hours; plasmid PHP10512, event 78; individual T0 plant; 20 μl of 200 μl extract
Description: (§1) To further examine the effect of the Ecdysone receptors on promoter-driven expression, a stable transactivation assay was performed using a chimeric Ecdysone receptor. DNA constructs were generated for the expression of both effector and reporter DNA sequences.
(§2) A reporter plasmid, designated PHP1654, was constructed in the pSP72 vector and contained 5 GAL4 responsive elements, a minimal CaMV-59 constitutive promoter, the Omega' leader sequence, Adh intron 1, the coding sequence for firefly Luciferase, and the PinII terminator sequences.
Two DNA constructions encoding chimeric Ecdysone receptor proteins were generated. The chimeric Ecdysone receptor construct designated PHP10512 contains the Nopaline synthase (NOS) promoter, the Omegá leader sequence, Adh1 intron, 355 promoter, PAT gene and the potato protease inhibitor II (PinII) termination sequences cloned into a pUC vector. A fragment encoding a fusion between the maize C1 transactivation domain, the Gal4 DNA binding domain, and the ligand-binding domain of the Ecdysone receptor was cloned downstream of the intron.
Immature embryos approximately 1.5 to 2.0 mm long from the Hi-II genotype (Armstrong and Phillips (1988) Crop Sci. 28:363–369) were bombarded with the PHP1654 reporter plasmid and either PHP10513 or PHP10512. As noted above, a selectable marker gene, PAT, was contained on PHP10513 and PHP10512. […]

[2] = tested on: USP receptor (plasmid PHP10967) and C1::LexA::ecdysone fusion protein (plasmid PHP10956); experiment: Transient transactivation assay, luciferase reporter PHP11545, maize embryogenic suspension cells, chimeric EcR plus USP (NosCLO/NosUSP)
Description: (§3) To examine the effect of the Ecdysone and USP receptors on promoter-driven expression, a transient transactivation assay was developed using a cell suspension culture derived from maize embryos. (See also, U.S. Pat. No. 5,886,244.) A reporter plasmid, designated PHP11545, was constructed in the pSP72 vector and contained 8 LexA operators, a minimal fragment of the CaMV-59 constitutive promoter, the Omega leader sequence, Adh intron 1, the coding sequence for firefly luciferase, and the PinII terminator sequences.
(§4) Two DNA constructs encoding effector proteins were generated. A chimeric Ecdysone receptor construct designated PHP10956 was generated. PHP10956 contains the Nopaline synthase (NOS) promoter, the Omega leader sequence, Adh1 intron, and the potato protease inhibitor II (PinII) termination sequences cloned into a pUC vector. A fragment encoding a fusion between the maize C1 transactivation domain, the LexA DNA binding domain, and the ligand-binding domain of the Ecdysone receptor was cloned downstream of the intron.
A DNA construction containing the USP coding sequences was generated and designated PHP10967. PHP10967 contains the Nos promoter, the Omega leader sequence, Adh1 intron, and the PinII terminator sequences cloned into the pUC vector. The nucleic acid sequence encoding the USP coding region was inserted downstream of the intron.
(§5) These constructs were introduced into embryogenic suspension cells by microprojectile bombardment as described by Unger et al. (1993) The Plant Cell 5:831–841. Plasmid DNA encoding effector and reporter sequences was mixed with 50 μl (15 mg/ml) of 1.0 μm tungsten microprojectiles. DNA was precipitated by addition of 50 μl 2.5 M CaCl2 and 20 μl 0.1M spermidine. Microprojectiles and precipitated DNA were centrifuged to a pellet and the supernatant was removed. The pellet was washed by sonication in the presence of 250 μl absolute ethanol, centrifuged and ethanol removed. Sixty μl of fresh absolute ethanol was added and this mixture sonicated to disperse the pellet. […]

[3] = tested on: chimeric Ecdysone receptor: VP16 activation domain, Gal4 DNA binding domain, ligand-binding domain of the Ecdysone receptor (PHP10513); experiment: Stable transactivation assay, GAL4-responsive luciferase reporter PHP1654, leaf punches of T0 maize plants, PHP10513; conditions: 10 μM RH5992 in H2O, 16 hours, individual T0 plant, 20 μl of 200 μl extract
Description: as §1, §2
The plasmid designated PHP10513 also contains the Nopaline synthase (NOS) promoter, the Omegá leader sequence, Adh1 intron, 355 promoter, PAT gene, and the potato protease inhibitor II (PinII) termination sequences cloned into a pUC vector. However, the fragment encoding the chimeric receptor immediately downstream of the intron, comprises a fusion between the VP16 activation domain, the Gal4 DNA binding domain, and the ligand-binding domain of the Ecdysone receptor.
Immature embryos approximately 1.5 to 2.0 mm long from the Hi-II genotype (Armstrong and Phillips (1988) Crop Sci. 28:363–369) were bombarded with the PHP1654 reporter plasmid and either PHP10513 or PHP10512. As noted above, a selectable marker gene, PAT, was contained on PHP10513 and PHP10512. The PAT gene confers resistance to the herbicide Bialophos. (Wohlleben et al. (1988) Gene 70:25–37.)
Embryos were bombarded using the protocols described in Tomes et al. (1994) Plant Cell, Tissue, and Organ culture, Fundamental Methods 197–213. Specifically, the Hi-II immature embryos were bombarded and cultured on selection medium as described by Songstad et al. 1993 Agronomy Abstracts 183. Plant regeneration from transgenic calli was performed according to the protocol of Armstrong and Phillips (1988) Crop Sci 28:363–369, except that bialaphos (3 mg/l) was added to each of the regeneration media. Plants were established in the greenhouse.
The transactivation of the luciferase reporter sequence by a chimeric Ecdysone receptor was assayed using standard protocols. […]

[4] = tested on: C1::LexA::ecdysone fusion protein (plasmid PHP10956; ligand-binding domain of the Ecdysone receptor)
Description: as §3, §4
as §5, with “pellet. Ten μl aliquots of this microprojectile-DNA mixture were placed on each macrocarrier and bombarded into maize suspension cells using a helium-driven microprojectile gun, PDS-1000 (1100 psi rupture disk pressure).” for “pellet.”

CCc1ccc(C(=O)NN(C(=O)c2cc(C)cc(C)c2)C(C)(C)C)cc1 [RH5992, 3,5-dimethylbenzoic acid 1—1 (1,1-dimethylethyl)-2(4-ethylbenzoyl)hydrazide]
RH5992 treated (Light Units), luciferase activity [1]: 3771 Light Units and 1819 Light Units and 7742 Light Units and 1027 Light Units and 9742 Light Units and 2486 Light Units and 8494 Light Units and 3988 Light Units and 9265 Light Units and 6198 Light Units and 6293 Light Units and 1045 Light Units and 8354 Light Units and 4720 Light Units
Average Light Units (luciferase expression) ([2]; 10 μM RH5992, NosCLO/NosUSP, 0.02 μg each, 16 to 18 hours at 26° C., maize suspension cells): 201808 Light Units
Fold Induction (luciferase) ([2]; 10 μM RH5992 vs no ligand, NosCLO/NosUSP, 0.02 μg each): 53x
Transactivation of the LexA responsive luciferase reporter (PHP11545) ([2]; in the presence of the RH5992 ligand, USP (PHP10967) plus C1::LexA::ecdysone fusion (PHP10956)): 53 fold
RH5992 treated (Light Units), luciferase activity ([3]; plasmid PH10513, event 30): 38093 Light Units and 26394 Light Units and 24632 Light Units and 33636 Light Units and 28213 Light Units and 22137 Light Units and 105341 Light Units and 44639 Light Units and 49279 Light Units and 83241 Light Units and 61320 Light Units and 130618 Light Units and 95166 Light Units and 35641 Light Units and 37955 Light Units and 38507 Light Units and 37855 Light Units and 42346 Light Units
RH5992 treated (Light Units), luciferase activity ([3]; plasmid PHP10513, event 44): 605147 Light Units and 528950 Light Units and 303021 Light Units and 573842 Light Units and 417072 Light Units and 511220 Light Units and 290095 Light Units
RH5992 treated (Light Units), luciferase activity ([3]; plasmid PHP10513, event 117): 90037 Light Units and 40005 Light Units and 149594 Light Units and 75379 Light Units and 49243 Light Units and 114913 Light Units and 57607 Light Units and 46075 Light Units
Average Light Units (luciferase expression) ([4]; 10 μM RH5992, NosCLO only, effector dose 0.02 μg, 16 to 18 hours at 26° C., maize suspension cells): 153613 Light Units
Fold Induction (luciferase) ([4]; 10 μM RH5992 vs no ligand, NosCLO only, 0.02 μg): 8.4x
Transactivation of the LexA responsive luciferase reporter gene (in words) ([4]; in the presence of the RH5992 ligand, only C1::LexA::ecdysone fusion protein (PHP10956), no USP): resulted in the transactivation of the LexA responsive luciferase reporter gene

Source: patent publication US7151168B2, “Ecdysone receptors and methods for their use” (Pioneer Hi-Bred International, Inc., priority 1998, dated 2006)
